Assay results taken from patent US20160318866A1, “SUBSTITUTED BIPIPERIDINYL DERIVATIVES” (Bayer Pharma Aktiengesellschaft, priority 2013, published 2016).
Structures can show the parent of a compound that is named as a salt.

The compounds below were run against T1, human α2C receptor (Homo sapiens, UniProt P18825) (assay: Antagonism against the adrenoreceptor α2C (luminescence, recombinant CHO cell line)). Settings: antagonism against adrenoreceptor α2C; noradrenaline 20 nM; tested up to 10 μM; read-out: IC50.
T1 construct: expressed in transfected cells; host or cells: CHO cells, also recombinantly expressing chimeric G protein Gαqi3 and mitochondrial obelin (mtOb)
T1 sequence (P18825 1-462): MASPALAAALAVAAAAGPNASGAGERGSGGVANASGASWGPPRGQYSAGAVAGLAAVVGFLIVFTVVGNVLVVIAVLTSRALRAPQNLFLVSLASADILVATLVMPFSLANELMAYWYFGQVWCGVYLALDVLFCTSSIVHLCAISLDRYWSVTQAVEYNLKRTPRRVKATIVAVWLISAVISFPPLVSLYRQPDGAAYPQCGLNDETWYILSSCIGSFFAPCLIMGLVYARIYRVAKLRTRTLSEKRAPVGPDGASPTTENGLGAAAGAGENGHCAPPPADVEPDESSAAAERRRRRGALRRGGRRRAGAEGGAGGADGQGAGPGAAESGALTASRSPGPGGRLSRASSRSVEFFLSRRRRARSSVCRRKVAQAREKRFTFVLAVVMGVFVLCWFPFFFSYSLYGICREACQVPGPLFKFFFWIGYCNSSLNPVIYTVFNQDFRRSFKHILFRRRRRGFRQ
Assay type: cell-based
Summary of the method: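 CHO cells expressing human α2C receptor with chimeric Gαqi3 and mitochondrial obelin, loaded with 2.5 μg/ml coelenterazine for one day at 30 °C.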

Structure (SMILES)	IC50 [µM]
Cc1cccnc1CNC(=O)c1ccc(C(=O)N2CCC(C3CCCC(C)C3)CC2)cc1 (stereo not drawn) [Example 74, 4-{[4-(3-Methylcyclohexyl)piperidin-1-yl]carbonyl}-N-[(3-methylpyridin-2-yl)methyl]benzamide trifluoroacetic acid salt]	0.155
CC1CCCN(C2CCN(C(=O)c3ccc(C(=O)NCc4ccnc(Cl)c4)cc3)CC2)C1 (stereo not drawn) [Example 75, N-[(2-Chloropyridin-4-yl)methyl]-4-[(3-methyl-1,4′-bipiperidin-1′-yl)carbonyl]benzamide trifluoroacetic acid salt]	0.036
CC1CCCN(C2CCN(C(=O)c3ccc(C(=O)NCc4cccc(Cl)n4)cc3)CC2)C1 (stereo not drawn) [Example 76, N-[(6-Chloropyridin-2-yl)methyl]-4-[(3-methyl-1,4′-bipiperidin-1′-yl)carbonyl]benzamide trifluoroacetic acid salt]	0.445
CC1CCCN(C2CCN(C(=O)c3ccc(C(=O)NC(C)(C)c4ccc(Cl)cc4)cc3)CC2)C1 (stereo not drawn) [Example 77, N-[2-(4-Chlorophenyl)propan-2-yl]-4-[(3-methyl-1,4′-bipiperidin-1′-yl)carbonyl]benzamide trifluoroacetic acid salt]	0.054
CC1CCCN(C2CCN(C(=O)c3ccc(C(=O)NC(C)(C)c4ccccc4Cl)cc3)CC2)C1 (stereo not drawn) [Example 78, N-[2-(2-Chlorophenyl)propan-2-yl]-4-[(3-methyl-1,4′-bipiperidin-1′-yl)carbonyl]benzamide trifluoroacetic acid salt]	0.024
CC1CCCN(C2CCN(C(=O)c3ccc(C(=O)NC(C)(C)c4cccc(Cl)c4)cc3)CC2)C1 (stereo not drawn) [Example 79, N-[2-(3-Chlorophenyl)propan-2-yl]-4-[(3-methyl-1,4′-bipiperidin-1′-yl)carbonyl]benzamide trifluoroacetic acid salt]	0.054
CC1CCCN(C2CCN(C(=O)c3ccc(C(=O)NC(C)(C)c4cc(Cl)cc(Cl)c4)cc3)CC2)C1 (stereo not drawn) [Example 80, N-[2-(3,5-Dichlorophenyl)propan-2-yl]-4-[(3-methyl-1,4′-bipiperidin-1′-yl)carbonyl]benzamide trifluoroacetic acid salt]	0.15
CC1CCCN(C2CCN(C(=O)c3ccc(C(=O)NCc4ccccc4C(F)(F)F)cc3)CC2)C1 (stereo not drawn) [Example 81, 4-[(3-Methyl-1,4′-bipiperidin-1′-yl)carbonyl]-N-[2-(trifluoromethyl)benzyl]benzamide trifluoroacetic acid salt]	0.057
C[C@@H]1CCCN(C2CCN(C(=O)c3ccc(C(=O)NCc4ncc(F)cc4F)cc3)CC2)C1 [Example 82, (R)—N-[(3,5-Difluoropyridin-2-yl)methyl]-4-{[(3R)-3-methyl-1,4′-bipiperidin-1′-yl]carbonyl}benzamide trifluoroacetic acid salt]	0.015
C[C@@H]1CCCN(C2CCN(C(=O)c3ccc(C(=O)NCc4cccnc4Cl)cc3)CC2)C1 [Example 83, (R)—N-[(2-Chloropyridin-3-yl)methyl]-4-{[(3R)-3-methyl-1,4′-bipiperidin-1′-yl]carbonyl}benzamide trifluoroacetic acid salt]	0.007
C[C@@H]1CCCN(C2CCN(C(=O)c3ccc(C(=O)N(C)Cc4c(F)cccc4F)cc3)CC2)C1 [Example 84, (R)—N-(2,6-Difluorobenzyl)-N-methyl-4-{[(3R)-3-methyl-1,4′-bipiperidin-1′-yl]carbonyl}benzamide trifluoroacetic acid salt]	0.003
C[C@@H]1CCCN(C2CCN(C(=O)c3ccc(C(=O)NC(c4ccc(C(F)(F)F)cc4)C(F)(F)F)cc3)CC2)C1 (stereo partly drawn) [Example 85, 4-{[(3R)-3-Methyl-1,4′-bipiperidin-1′-yl]carbonyl}-N-{2,2,2-trifluoro-1-[4-(trifluoromethyl)phenyl]ethyl}benzamide trifluoroacetic acid salt]	0.2
C[C@@H]1CCCN(C2CCN(C(=O)c3ccc(C(=O)NCc4cccc(OC(F)F)c4)cc3)CC2)C1 [Example 86, (R)—N-[3-(Difluoromethoxy)benzyl]-4-[(3-methyl-1,4′-bipiperidin-1′-yl)carbonyl]benzamide trifluoroacetic acid salt]	0.18
CC(NC(=O)c1ccc(C(=O)N2CCC(N3CCC[C@@H](C)C3)CC2)cc1)c1c(F)cccc1F (stereo partly drawn) [Example 87, N-[1-(2,6-Difluorophenyl)ethyl]-4-{[(3R)-3-methyl-1,4′-bipiperidin-1′-yl]carbonyl}benzamide trifluoroacetic acid salt]	0.016
C[C@@H]1CCCN(C2CCN(C(=O)c3ccc(C(=O)NCc4c(F)cccc4F)cc3)CC2)C1 [Example 88, N-(2,6-Difluorobenzyl)-4-{[(3R)-3-methyl-1,4′-bipiperidin-1′-yl]carbonyl}benzamide trifluoroacetic acid salt]	0.011
C[C@@H]1CCCN(C2CCN(C(=O)c3ccc(C(=O)NC(CCO)c4ccccc4F)cc3)CC2)C1 (stereo partly drawn) [Example 89, N-[1-(2-Fluorophenyl)-3-hydroxypropyl]-4-{[(3R)-3-methyl-1,4′-bipiperidin-1′-yl]carbonyl}benzamide trifluoroacetic acid salt]	0.017
C[C@@H]1CCCN(C2CCN(C(=O)c3ccc(C(=O)NCc4cc(Cl)ccn4)cc3)CC2)C1 [Example 90, N-[(4-Chloropyridin-2-yl)methyl]-4-{[(3R)-3-methyl-1,4′-bipiperidin-1′-yl]carbonyl}benzamide]	0.028
C[C@@H]1CCCN(C2CCN(C(=O)c3ccc(C(=O)NCc4ncc(Cl)cc4C(F)(F)F)cc3)CC2)C1 [Example 91, N-{[5-Chloro-3-(trifluoromethyl)pyridin-2-yl]methyl}-4-{[(3R)-3-methyl-1,4′-bipiperidin-1′-yl]carbonyl}benzamide]	0.013
C[C@@H]1CCCN(C2CCN(C(=O)c3ccc(C(=O)NCc4cc(C(F)(F)F)c(Cl)cn4)cc3)CC2)C1 [Example 92, N-{[5-Chloro-4-(trifluoromethyl)pyridin-2-yl]methyl}-4-{[(3R)-3-methyl-1,4′-bipiperidin-1′-yl]carbonyl}benzamide]	0.16
CC(NC(=O)c1ccc(C(=O)N2CCC(N3CCC[C@@H](C)C3)CC2)cc1)c1ccncc1 (stereo partly drawn) [Example 93, 4-{[(3R)-3-Methyl-1,4′-bipiperidin-1′-yl]carbonyl}-N-[1-(pyridin-4-yl)ethyl]benzamide]	0.135
C[C@@H]1CCCN(C2CCN(C(=O)c3ccc(C(=O)NC(CO)c4ccccc4F)cc3)CC2)C1 (stereo partly drawn) [Example 94, N-[1-(2-Fluorophenyl)-2-hydroxyethyl]-4-{[(3R)-3-methyl-1,4′-bipiperidin-1′-yl]carbonyl}benzamide]	0.025
Cc1ncccc1CNC(=O)c1ccc(C(=O)N2CCC(N3CCC[C@@H](C)C3)CC2)cc1 [Example 95, 4-{[(3R)-3-Methyl-1,4′-bipiperidin-1′-yl]carbonyl}-N-[(2-methylpyridin-3-yl)methyl]benzamide]	0.047
COCC1CCCN(C2CCN(C(=O)c3ccc(C(=O)N(C)Cc4c(F)cccc4F)cc3)CC2)C1 (stereo not drawn) [Example 96, N-(2,6-Difluorobenzyl)-4-{[3-(methoxymethyl)-1,4′-bipiperidin-1′-yl]carbonyl}-N-methylbenzamide trifluoroacetic acid salt]	0.01
COCC1CCCN(C2CCN(C(=O)c3ccc(C(=O)NCc4ncc(F)cc4F)cc3)CC2)C1 (stereo not drawn) [Example 97, N-[(3,5-Difluoropyridin-2-yl)methyl]-4-{[3-(methoxymethyl)-1,4′-bipiperidin-1′-yl]carbonyl}benzamide trifluoroacetic acid salt]	0.01
